Laboratory results published in US20220016114A1, “Heart Rate Decreasing Agent” (FURUKAWA RESEARCH OFFICE CO., LTD., priority 2018, published 2022).
“Also recorded” adds a separate entry of the source.

System: heart rate of a person
Assay: Variation in heart rate before and after oral ingestion of orotic acid tablets, at rest and after drinking
Assay type: in vivo, human
Settings: for Symptoms (4 to 5 hours after orotic acid ingestion): placebo: languor
Protocol: Tablets consisting of orotic acid were orally ingested and the variation in heart rate was measured before and after oral ingestion. The test subject was a person. Although they were told at their medical checkup that their cholesterol was slightly high, they had not taken any medication and had no preexisting condition. Their blood pressure was in the normal range, and they had never been diagnosed with a blood pressure problem in the past. Their heart rate was slightly high at about 89 to 92 beats/min, and rarely fell below 86 beats/min even at rest. Since the heart rate quickly increases due to exercise and tension or the like, the measurement day was spent as much as possible doing desk work and the like, and the measurement was made under stable conditions after sitting on a chair for at least several minutes. They were drinking 2 cans of beer and 2 to 3 double glasses of shochu daily. Their heart rate after drinking was increasing to about 105 to 115 beats/min (120 beats/min in rare cases), and they were feeling drunk and mild palpitation. They were also feeling sleepy on some days. The test subject ingested a tablet containing 200 mg of orotic acid by oral administration, and the measurement of their heart rate was started.

## O=C(O)c1cc(=O)[nH]c(=O)[nH]1 [Orotic acid, 1,2,3,6-tetrahydro-2,6-dioxo-4-pyrimidinecarboxylic acid]
Conclusion from Table 1, person, 200 mg oral
  Overall effect on heart rate and on daily palpitation and fatigue: a decrease in heart rate was clearly observed; also recorded: improved the palpitation and fatigue that were felt on a daily basis
person, 200 mg oral
  Heart rate after stabilisation (later than 4 hours after ingestion): in the 70s beats/min to the lower 80s beats/min
  Time after ingestion from which heart rate gradually decreased: about 2 hours
  Symptoms (4 to 5 hours after orotic acid ingestion): Clear head; also recorded: No languor
person, 200 mg oral, after usual beer and shochu, placebo: slight drunkenness, mild palpitation, drowsiness
  Symptoms (after drinking): felt almost no drunkenness or palpitation
person, 200 mg oral, usual amount of beer and shochu after the decrease in heart rate, placebo 105 to 115 beats/min
  Heart rate 1 to 2 hours after drinking: 85 to 103 beats/min
person, 200 mg oral, listed as orotic acid
  Symptoms (4 to 5 hours after orotic acid ingestion): their head was more refreshed and no longer felt lethargic
person, 200 mg oral, usual heart rate about 89 to 92 beats/min
  Heart rate 4 hours after ingestion: ≤ 80 beats/min
person, tablet containing 200 mg orotic acid orally, sitting at rest, placebo 88 to 93 beats/min
  Heart rate 4 to 5 hours after orotic acid ingestion: 77 to 82 beats/min
